Where two headings read alike, the source gives them in different places. Ends that are not written are not given here.
What was measured:
CD4+ T cells = format: cell-based, human
[1] = target: DQ0602 (HLA DQB1*06:02/DQA1*01:02 heterodimer) (Homo sapiens, UniProt P01909+P01920, A157G/A45G/C70R/E118A/E183D/E77G/F83G/G63E/H151Q/H199R/H252R/H253Q/I129T/I235V/I88M/INS77G/K197Q/L117V/L119F/L178F/L71W/L74F/L85Q/L91A/L98M/N214S/P87R/Q116E/Q76K/R102G/R240Q/R75S/R78G/S102Y/S185I/S41F/S97I/T121G/T122I/T172A/T86R/V229M/V68A/V73E/Y34C/Y41F/Y58L); format: binding; conditions: in words; Dataset S1
[2] = 13 post-Pandemrix cases versus 10 post-Pandemrix controls

Substance | Tetramer reactivity (frequency of specific CD4+ T cells) in primary screening (CD4+ T cells) | Tetramer-positive CD4+ T cells in T1N cases versus DQ0602 controls (CD4+ T cells; [2]) | Tetramer-positive CD4+ T cells in T1N cases versus DQ0602 controls (CD4+ T cells; all cases versus controls, […]) | DQ0602 binding affinity of amidated versus nonamidated HCRT peptide [1] | Tetramer-positive CD4+ T cells in T1N cases versus DQ0602 controls (CD4+ T cells; 7 recent onset cases versus 21 controls)
NP17–31: nucleoprotein epitope, PR8 specific (GERQNATEIRASVGK) | highest frequencies |  |  |  | 
NP261–275: nucleoprotein epitope shared between A/California/07/2009 and PR8 (RSALILRGSVAHKSC; UniProt P03466 261-275, looked up, fragment) | highest frequencies |  |  |  | 
HCRT86–97-NH2: C-terminal amidated HCRT86–97, as in secreted, mature hypocretin-2 (ASGNHAAGILTM-NH2; UniProt O43612 86-97, looked up, fragment) |  | significantly higher reactivity | marginally higher values | higher affinity | 
HCRT54–66-NH2: C-terminal amidated HCRT54–66, as in secreted, mature hypocretin-1 (HGAGNHAAGILTL-NH2) |  | marginally higher values | significantly higher percentage | higher affinity | higher reactivity
